Earlier results as cited in patent publication US20120277147A1, “PREVENTION OF HYPOGLYCAEMIA IN DIABETES MELLITUS TYPE 2 PATIENTS” (priority 2011, published 2012).

System: patients with type 2 diabetes treated with metformin and a sulfonylurea
Settings: 30 week; patients unable to achieve adequate glycemic control with combined metformin-sulfonylurea therapy

Exendin-4: native exendin peptide, SEQ ID NO: 2 (39 AS), which can lower blood glucose concentration
Effect on HbA1c: significantly reduced HbA1c
